How the values were obtained:
[1] = tested on: HCV GT1b(Con1) replicon; experiment: HCV replicon luciferase reporter assay, genotype 1b; type: cell-based, HCV genotype 1b; details: Hepatitis C virus, 72 h, HUH-7 cells, Renilla luciferase, 3 days incubation, read-out: LE_1b (EC50, range)
Excerpt: An HCV GT1b(Con1) replicon cell system was established as described by Lohmann V, Korner F, Koch J, Herian U, Theilmann L, Bartenschlager R., Science 285(5424):110-3 (1999) and modified to introduce a luciferase reporter (Krieger N, Lohmann V, and Bartenschlager R, J. Virol. 75(10):4614-4624 (2001)). cDNA encoding a humanized form of the Renilla luciferase gene, and a linker sequence fused directly to the 3′-end of the luciferase gene were introduced into the replicon construct using an Asc1 restriction site located in core, directly upstream of the neomycin marker gene. The adaptive mutation at position 1179 (serine to isoleucine) was also introduced (Blight K J, Kolykhalov, A A, Rice, C M, Science 290(5498):1972-1974). A stable cell line constitutively expressing this HCV replicon construct was generated by first linearizing plasmid DNAs with ScaI. RNA transcripts were synthesized in vitro using the T7 MegaScript transcription kit (Ambion, Austin, Tex.) according to manufacturer's directions. In vitro transcripts of the cDNA were transfected into the human hepatoma cell line, HUH-7. […] Resulting cell lines were characterized for positive and negative strand RNA production and protein production over time.
(§1) HCV replicon luciferase assays were developed to monitor the inhibitory effects of compounds described in the disclosure on HCV genotypes 1a and 1b viral replication. HUH-7 cells, constitutively expressing the HCV replicon, were grown in Dulbecco's Modified Eagle Media (DMEM) (Gibco-BRL) containing 10% Fetal calf serum (FCS) (Sigma) and 1 mg/mL G418 (Gibco-BRL). Compounds were serially diluted 3 folds in DMSO for a twenty-point titration and subsequently transferred to sterile 384-well tissue-culture treated plates (Corning cat #3571). The plates were then seeded with 50 μL of cells at a density of 3.0×10^3 cells/well in DMEM containing 4% FCS (final DMSO concentration at 0.5%). After 3 days incubation at 37° C., cells were analyzed for Renilla Luciferase activity using the EnduRen as substrate (Promega cat #E6485). The EnduRen substrate was diluted in DMEM and then added to the plates to a final concentration of 7.5 μM. The plates were incubated for 2 hrs at 37° C. and then read immediately for 30 seconds with Viewlux Imager (PerkinElmer) using a luminescence program. To assess cytotoxicity of compounds, CC50 values were generated by multiplexing the EnduRen-containing plates with Cell Titer-Blue (Promega, cat #G8082). Cell-Titer Blue (3 μL) was added to each well and incubated for 8 hrs at 37° C. The fluorescence signal from each well was read, with an excitation wavelength at 525/10 nm and an emission wavelength of 598/10 nm, using the Viewlux Imager.
(§2) The EC50 values for compounds were calculated by using a four-parameter logistic equation: y=A+[…])/(1+((C/x)^D))), where A and B denotes minimal and maximal % inhibition, respectively, C is the EC50, D is the hill slope and x represents compound concentration.

[2] = tested on: HCV GT1a(H77) replicon; experiment: HCV replicon luciferase reporter assay, genotype 1a; type: cell-based, HCV genotype 1a; details: Hepatitis C virus, 72 h, HUH-7 cells, Renilla luciferase, 3 days incubation, read-out: LE_1a (EC50, range)
Excerpt: A stable HCV GT1a(H77) replicon luciferase reporter cell line (Yanagi M, Purcell RH, Emerson S U, et al. Transcripts from a single full-length cDNA clone of hepatitis C virus are infectious when directly transfected into the liver of a chimpanzee. Proc Natl Acad Sci USA 1997; 94(16):8738-8743) was generated as described previously for the genotype 1b(Con1) replicon luciferase cell line. The replicon construct was modified by introducing mutations into the genes encoding the NS3 helicase domain (proline replaced by leucine at position 1496) and NS5A (serine to isoleucine at position 2204) to improve replication in cell culture.
as §1, §2

SMILES | EC50 [1] | EC50 [2]
CC(C)Oc1ccc(-c2cc(O[C@@H]3C[C@H]4C(=O)N[C@]5(C(=O)NS(=O)(=O)C6(C)CC6)C[C@H]5/C=C\CC[C@H](C)C[C@@H](C)[C@H](NC(=O)OC(C)(C)C(F)(F)F)C(=O)N4C3)cc(-c3ccncc3)n2)cc1 [Compound 1010, 1,1,1-trifluoro-2-methylpropan-2-yl ((2R,6S,7R,9S,13aS,14aR,16aS,Z)-2-((6-(4-isopropoxyphenyl)-[2,4′-bipyridin]-4-yl)oxy)-7,9-dimethyl-14a-(((1-methylcyclopropyl)sulfonyl)carbamoyl)-5,16-dioxo-1,2,3,5,6,7,8,9,10,11,13a,14,14a,15,16,16a-hexadecahydrocyclopropa[e]pyrrolo[1,2-a][1,4]diazacyclopentadecin-6-yl)carbamate] | 5.01 to 35 nM | 5.01 to 35 nM
COc1cccc(-c2cc(O[C@@H]3C[C@H]4C(=O)N[C@]5(C(=O)NS(=O)(=O)C6(C)CC6)C[C@H]5/C=C\CCC(C)C[C@@H](C)[C@H](NC(=O)OC(C)(C)C(F)(F)F)C(=O)N4C3)cc(-c3ccc(OC(C)C)cc3)n2)n1 (stereo in doubt) [Compound 1012, 1,1,1-trifluoro-2-methylpropan-2-yl ((2R,6S,7R,9R,13aS,14aR,16aS,Z)-2-((6-(4-isopropoxyphenyl)-6′-methoxy-[2,2′-bipyridin]-4-yl)oxy)-7,9-dimethyl-14a-(((1-methylcyclopropyl)sulfonyl)carbamoyl)-5,16-dioxo-1,2,3,5,6,7,8,9,10,11,13a,14,14a,15,16,16a-hexadecahydrocyclopropa[e]pyrrolo[1,2-a][1,4]diazacyclopentadecin-6-yl)carbamate] | 5.01 to 35 nM | 5.01 to 35 nM
CC(C)Oc1ccc(-c2cc(O[C@@H]3C[C@H]4C(=O)N[C@]5(C(=O)NS(=O)(=O)C6(C)CC6)C[C@H]5/C=C\CC[C@@H](C)C[C@@H](C)[C@H](NC(=O)OC5(C(F)(F)F)CCCOC5)C(=O)N4C3)cc(-c3ncccn3)n2)cc1 (stereo partly drawn) [Compound 1048, 3-(trifluoromethyl)tetrahydro-2H-pyran-3-yl ((2R,6S,7R,9R,13aS,14aR,16aS,Z)-2-((2-(4-isopropoxyphenyl)-6-(pyrimidin-2-yl)pyridin-4-yl)oxy)-7,9-dimethyl-14a-(((1-methylcyclopropyl)sulfonyl)carbamoyl)-5,16-dioxo-1,2,3,5,6,7,8,9,10,11,13a,14,14a,15,16,16a-hexadecahydrocyclopropa[e]pyrrolo[1,2-a][1,4]diazacyclopentadecin-6-yl)carbamate] | 1.01 to 5 nM | 1.01 to 5 nM
Cc1cc(O[C@@H]2C[C@H]3C(=O)N[C@]4(C(=O)NS(=O)(=O)C5(C)CC5)C[C@H]4/C=C\CC[C@H](C)C[C@@H](C)[C@H](NC(=O)OC(C)(C)C(F)(F)F)C(=O)N3C2)cc(-c2cncs2)n1 [Compound 1016, 1,1,1-trifluoro-2-methylpropan-2-yl ((2R,6S,7R,9S,13aS,14aR,16aS,Z)-7,9-dimethyl-2-((2-methyl-6-(thiazol-5-yl)pyridin-4-yl)oxy)-14a-(((1-methylcyclopropyl)sulfonyl)carbamoyl)-5,16-dioxo-1,2,3,5,6,7,8,9,10,11,13a,14,14a,15,16,16a-hexadecahydrocyclopropa[e]pyrrolo[1,2-a][1,4]diazacyclopentadecin-6-yl)carbamate] | 35 to 359 nM | 35 to 359 nM
C[C@@H]1CC/C=C\[C@@H]2C[C@@]2(C(=O)NS(=O)(=O)C2(C)CC2)NC(=O)[C@@H]2C[C@@H](Oc3ncccc3Cl)CN2C(=O)[C@@H](NC(=O)OC(C)(C)C(F)(F)F)[C@H](C)C1 [Compound 1069, 1,1,1-trifluoro-2-methylpropan-2-yl ((2R,6S,7R,9R,13aS,14aR,16aS,Z)-2-((3-chloropyridin-2-yl)oxy)-7,9-dimethyl-14a-(((1-methylcyclopropyl)sulfonyl)carbamoyl)-5,16-dioxo-1,2,3,5,6,7,8,9,10,11,13a,14,14a,15,16,16a-hexadecahydrocyclopropa[e]pyrrolo[1,2-a][1,4]diazacyclopentadecin-6-yl)carbamate] | 0.1 to 0.5 nM | –
C[C@@H]1CC/C=C\[C@@H]2C[C@@]2(C(=O)NS(=O)(=O)C2(C)CC2)NC(=O)[C@@H]2C[C@@H](Oc3ncccc3C(F)(F)F)CN2C(=O)[C@@H](NC(=O)OC(C)(C)C(F)(F)F)[C@H](C)C1 [Compound 1066, 1,1,1-trifluoro-2-methylpropan-2-yl ((2R,6S,7R,9R,13aS,14aR,16aS,Z)-7,9-dimethyl-14a-(((1-methylcyclopropyl)sulfonyl)carbamoyl)-5,16-dioxo-2-((3-(trifluoromethyl)pyridin-2-yl)oxy)-1,2,3,5,6,7,8,9,10,11,13a,14,14a,15,16,16a-hexadecahydrocyclopropa[e]pyrrolo[1,2-a][1,4]diazacyclopentadecin-6-yl)carbamate] | 0.51 to 1 nM | –
C[C@@H]1CC/C=C\[C@@H]2C[C@@]2(C(=O)NS(=O)(=O)C2(C)CC2)NC(=O)[C@@H]2C[C@@H](Oc3nccc(Cl)c3C(F)(F)F)CN2C(=O)[C@@H](NC(=O)OC(C)(C)C(F)(F)F)[C@H](C)C1 [Compound 1067, 1,1,1-trifluoro-2-methylpropan-2-yl ((2R,6S,7R,9R,13aS,14aR,16aS,Z)-2-((4-chloro-3-(trifluoromethyl)pyridin-2-yl)oxy)-7,9-dimethyl-14a-(((1-methylcyclopropyl)sulfonyl)carbamoyl)-5,16-dioxo-1,2,3,5,6,7,8,9,10,11,13a,14,14a,15,16,16a-hexadecahydrocyclopropa[e]pyrrolo[1,2-a][1,4]diazacyclopentadecin-6-yl)carbamate] | 0.1 to 0.5 nM | –
C[C@@H]1CC/C=C\[C@@H]2C[C@@]2(C(=O)NS(=O)(=O)C2(C)CC2)NC(=O)[C@@H]2C[C@@H](Oc3ncccc3C(F)(F)F)CN2C(=O)[C@@H](NC(=O)OC(C)(C)C)[C@H](C)C1 [Compound 1065, tert-butyl ((2R,6S,7R,9R,13aS,14aR,16aS,Z)-7,9-dimethyl-14a-(((1-methylcyclopropyl)sulfonyl)carbamoyl)-5,16-dioxo-2-((3-(trifluoromethyl)pyridin-2-yl)oxy)-1,2,3,5,6,7,8,9,10,11,13a,14,14a,15,16,16a-hexadecahydrocyclopropa[e]pyrrolo[1,2-a][1,4]diazacyclopentadecin-6-yl)carbamate] | 1.01 to 5 nM | –
COc1cccc(O[C@@H]2C[C@H]3C(=O)N[C@]4(C(=O)NS(=O)(=O)C5(C)CC5)C[C@H]4/C=C\CC[C@@H](C)C[C@@H](C)[C@H](NC(=O)OC(C)(C)C(F)(F)F)C(=O)N3C2)n1 [Compound 1068, 1,1,1-trifluoro-2-methylpropan-2-yl ((2R,6S,7R,9R,13aS,14aR,16aS,Z)-2-((6-methoxypyridin-2-yl)oxy)-7,9-dimethyl-14a-(((1-methylcyclopropyl)sulfonyl)carbamoyl)-5,16-dioxo-1,2,3,5,6,7,8,9,10,11,13a,14,14a,15,16,16a-hexadecahydrocyclopropa[e]pyrrolo[1,2-a][1,4]diazacyclopentadecin-6-yl)carbamate] | 1.01 to 5 nM | –

From patent US9334279B2, “Hepatitis C virus inhibitors” (BRISTOL-MYERS SQUIBB COMPANY, priority 2012, dated 2016)
